Source: patent US20010055755A1, “Dendritic marker-expressing macrophage cultures and methods for reactivating latent HCMV” (priority 1997, published 2001)

Tested on: HCMV
Experiment: HCMV infection of monocyte-derived dendritic cells with cytokine treatment
Assay type: cell-based
Conditions: up to day 12 post stimulation, compared with unstimulated cells
Description: PBMC were isolated as described above and plated onto primaria plates for monocyte adherence. After two hours of culture, non-adherent cells were removed by three washes in serum free medium and adherent cells were stimulated with I1-4 (1000 U/ml) and GM-CSF (50 ng/ml) as previously described (Sallusto et al., J. Exp. Med. 179:1109-1118 (1994)). Immature dendritic cells cultured in RPMI medium containing 1% sodium pyruvate were developed during the first 12 days of culture. Cell samples were collected at 12 days for flow cytometric analysis to determine the expression of dendritic and macrophage markers. Small, round dendritic cells were stimulated with […] (10 ng/ml) and IFN-γ (500 U/ml) for two days. Thereafter, the mature, adherent dendritic cells were challenged with HCMV at a MOI of 10 or mock infected as described herein.
PBMC were cultured under standard conditions with IL-4 and GM-CSF to yield monocyte-derived dendritic cells (see, e.g., Annals Surg. 226:1-5 (1997)). The dendritic cells were infected in vitro under the conditions described herein with HCMV. […] Viral growth is measured as described with antibodies against viral proteins IE and gB. Viral growth is measured at days 1, 3, 8, 12, and 20 post infection.

Substance: IFN-γ: cytokine used at 500 U/ml to stimulate dendritic cells
- viral expression in MDDC after additional stimulation: did not increase viral expression
